The values below come from patent US9351965B2, “Indazole derivatives useful as ERK inhibitors” (Merck Sharp & Dohme Corp., priority 2010, dated 2016).

The experiment deals with fully phosphorylated, active Mouse ERK2 protein (Mus musculus (Mouse), UniProt P63085). The experiment in a line: Active ERK2 (aERK) IMAP assay. Format: biochemical. The following applies: IMAP fluorescence polarization; 30 μM ATP; 30 minute pre-incubation.
Sequence of fully phosphorylated, active Mouse ERK2 protein (P63085 whole entry): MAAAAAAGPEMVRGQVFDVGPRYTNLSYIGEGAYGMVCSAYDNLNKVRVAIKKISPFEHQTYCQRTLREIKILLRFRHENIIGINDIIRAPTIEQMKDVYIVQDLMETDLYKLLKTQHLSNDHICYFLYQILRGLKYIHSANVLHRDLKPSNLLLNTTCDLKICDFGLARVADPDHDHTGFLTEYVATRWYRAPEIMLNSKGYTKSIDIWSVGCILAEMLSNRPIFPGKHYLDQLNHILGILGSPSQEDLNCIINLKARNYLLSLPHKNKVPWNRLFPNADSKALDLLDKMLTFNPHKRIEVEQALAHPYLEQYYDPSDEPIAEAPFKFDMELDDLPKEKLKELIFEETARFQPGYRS
Broadly, the IC50 is the concentration that inhibits the measured activity by half. Low values mean greater potency, high ones weaker potency. For the molecule `Cc1cc(-c2n[nH]c3ccc(C(=O)NC4CCCC(CO)(Oc5ccccc5)C4)cc23)ccn1` (stereo not drawn) [compound 41, N-[3-(hydroxymethyl)-3-phenoxycyclohexyl]-3-(2-methyl-4-pyridinyl)-1H-indazole-5-carboxamide], the IC50 amounted to 98.9 nM. In other words, the double-digit nanomolar range.

Regarding `Cc1cc(-c2n[nH]c3ccc(C(=O)NC4CCCC(CO)(Cc5ccccc5F)C4)cc23)ccn1` (mixture of isomers) [compound 130, N-[cis/trans-3-[(2-fluorophenyl)methyl]-3-(hydroxymethyl)cyclohexyl]-3-(2-methyl-4-pyridinyl)-1H-indazole-5-carboxamide], half-maximal inhibition (IC50) required 1000 nM.

Consider `Cc1cc(-c2n[nH]c3ccc(C(=O)NN4CCCC(CO)(Cc5ccccc5F)C4)cc23)ccn1` (stereo not drawn) [compound 151, N-[3-[(2-fluorophenyl)methyl]-3-(hydroxymethyl)-1-piperidinyl]-3-(2-methyl-4-pyridinyl)-1H-indazole-5-carboxamide], for which inhibition was half-maximal at 193 nM (IC50). Against the preceding molecule, the IC50 is about 5.2-fold lower.

`Cc1cc(-c2n[nH]c3ccc(C(=O)N[C@H]4CCC[C@@](O)(Cn5ncc6ccc(F)cc65)C4)cc23)ccn1` (relative stereo) [compound 100, N-[trans-3-[(6-fluoro-1H-indazol-1-yl)methyl]-3-hydroxycyclohexyl]-3-(2-methyl-4-pyridinyl)-1H-indazole-5-carboxamide] displayed a concentration for half-maximal inhibition (IC50) of 1000 nM.

In the case of `Cc1cc(-c2n[nH]c3ccc(C(=O)NC4CCCC(Oc5cccc(F)c5)(C(N)=O)C4)cc23)ccn1` (stereo not drawn) [compound 42, N-[3-(aminocarbonyl)-3-(3-fluorophenoxy)cyclohexyl]-3-(2-methyl-4-pyridinyl)-1H-indazole-5-carboxamide], the IC50 was determined as 11.2 nM. Against the preceding molecule, the IC50 is about 89-fold lower.

`Cc1cc(-c2n[nH]c3ccc(C(=O)N[C@@H]4CCC[C@](O)(Cn5ncc6cnccc65)C4)cc23)ccn1` (relative stereo) [compound 87, N-[trans-3-hydroxy-3-(1H-pyrazolo[4,3-c]pyridin-1-ylmethyl)cyclohexyl]-3-(2-methyl-4-pyridinyl)-1H-indazole-5-carboxamide] registered an IC50 of 410 nM. Compared with the last molecule, the IC50 is about 37-fold higher.

As to `Cc1cc(-c2n[nH]c3ccc(C(=O)NC4CCCC(Oc5ccccc5Cl)C4)cc23)ccn1` (single isomer, unassigned) [compound 29, N-[3-(2-chlorophenoxy)cyclohexyl]-3-(2-methyl-4-pyridinyl)-1H-indazole-5-carboxamide], the concentration for half-maximal inhibition (IC50) amounted to 1000 nM.

In turn, `Cc1cc(-c2n[nH]c3ccc(C(=O)N[C@@H]4CCC[C@@](O)(Cn5c(C)nc6cnccc65)C4)cc23)ccn1` (relative stereo) [compound 77, N-[cis-3-hydroxy-3-[(2-methyl-1H-imidazo[4,5-c]pyridiN-1-yl)methyl]cyclohexyl]-3-(2-methyl-4-pyridinyl)-1H-indazole-5-carboxamide] showed an IC50 of 1000 nM.

`Cc1cc(-c2n[nH]c3ccc(C(=O)NC4CCCC(Cn5cc6ccccc6n5)C4)cc23)ccn1` (stereo not drawn) [compound 122, N-[3-(2H-indazol-2-ylmethyl)cyclohexyl]-3-(2-methyl-4-pyridinyl)-1H-indazole-5-carboxamide] came in with an IC50 of 14.3 nM.

As for `Cc1cc(-c2n[nH]c3ccc(C(=O)N[C@@H]4CCC[C@](O)(Cn5c(C(F)(F)F)nc6ccccc65)C4)cc23)ccn1` (relative stereo) [compound 67, N-[trans-3-hydroxy-3-[[2-(trifluoromethyl)-1H-benzimidazol-1-yl]methyl]cyclohexyl]-3-(2-methyl-4-pyridinyl)-1H-indazole-5-carboxamide], 436 nM corresponded to half-maximal inhibition (IC50).

Molecule `O=C(N[C@@H]1CCC[C@](O)(Cn2ccccc2=O)C1)c1ccc2[nH]nc(-c3ccc4nccn4c3)c2c1` (relative stereo) [compound 85, N-[trans-3-hydroxy-3-[(2-oxo-1(2h)-pyridinyl)methyl]cyclohexyl]-3-imidazo[1,2-a]pyridiN-6-yl-1H-indazole-5-carboxamide] gave an IC50 of 1000 nM.

Take `Cc1cc(-c2n[nH]c3ccc(C(=O)N[C@H]4CCC[C@](O)(Cn5c(C)nc6ccccc65)C4)cc23)ccn1` [compound 70]: inhibition was half-maximal at 332 nM (IC50).

Molecule `Cn1cc2cc(-c3n[nH]c4ccc(C(=O)N[C@@H]5CCC[C@](O)(Cn6cccn6)C5)cc34)ccc2n1` (relative stereo) [compound 59, N-[trans-3-hydroxy-3-(1H-pyrazol-1-ylmethyl)cyclohexyl]-3-(2-methyl-2H-indazol-5-yl)-1H-indazole-5-carboxamide] displayed an IC50 of 67.4 nM.

`Cc1cc(-c2n[nH]c3ccc(C(=O)N[C@@H]4CCC[C@@](O)(Cn5ncc6cnccc65)C4)cc23)ccn1` (relative stereo) [compound 91, N-[cis-3-hydroxy-3-(1H-pyrazolo[4,3-c]pyridin-1-ylmethyl)cyclohexyl]-3-(2-methyl-4-pyridinyl)-1H-indazole-5-carboxamide] gave an IC50 of 563 nM.

In turn, `COCC1(Cc2ccccc2F)CCCN(NC(=O)c2ccc3[nH]nc(-c4ccnc(C)c4)c3c2)C1` (stereo not drawn) [compound 149, N-[3-[(2-fluorophenyl)methyl]-3-(methoxymethyl)-1-piperidinyl]-3-(2-methyl-4-pyridinyl)-1H-indazole-5-carboxamide] returned an IC50 of 937 nM.

`Cc1cc(-c2n[nH]c3ccc(C(=O)N[C@H]4CCC[C@@](O)(Cn5ncc6cccc(F)c65)C4)cc23)ccn1` (relative stereo) [compound 104, N-[trans-3-[(7-fluoro-1H-indazol-1-yl)methyl]-3-hydroxycyclohexyl]-3-(2-methyl-4-pyridinyl)-1H-indazole-5-carboxamide]: the IC50 came out at 74.3 nM.

Molecule `COc1cccc(F)c1C[C@@]1(O)CCC[C@@H](NC(=O)c2ccc3[nH]nc(-c4ccnc(OC(C)C)c4)c3c2)C1` [compound 25, N-[3(S)-[(2-fluoro-6-methoxyphenyl)methyl]-3-hydroxy-1(R)-cyclohexyl]-3-[2-(1-methylethoxy)-4-pyridinyl]-1H-indazole-5-carboxamide] gave an IC50 of 333 nM.

In turn, `Cc1cc(-c2n[nH]c3ccc(C(=O)N[C@@H]4CCC[C@@](O)(Cn5cnc6ncccc65)C4)cc23)ccn1` (relative stereo) [compound 81, N-[cis-3-hydroxy-3-(1H-imidazo[4,5-b]pyridin-1-ylmethyl)cyclohexyl]-3-(2-methyl-4-pyridinyl)-1H-indazole-5-carboxamide] yielded a concentration for half-maximal inhibition (IC50) of 825 nM.

Molecule `Cc1cc(-c2n[nH]c3ccc(C(=O)NC4CCCC(Oc5ccccc5F)C4)cc23)ccn1` (stereo not drawn) [compound 33, N-[3-(2-fluorophenoxy)cyclohexyl]-3-(2-methyl-4-pyridinyl)-1H-indazole-5-carboxamide] yielded an IC50 of 114 nM.

Take `Cc1cc(-c2n[nH]c3ccc(C(=O)NC4CCCC(Oc5ccc(F)cc5F)C4)cc23)ccn1` (single isomer, unassigned) [compound 38, N-[3-(2,4-difluorophenoxy)cyclohexyl]-3-(2-methyl-4-pyridinyl)-1H-indazole-5-carboxamide]: half-maximal inhibition (IC50) required 476 nM.

The molecule `Cc1cc(-c2n[nH]c3ccc(C(=O)NC4CCCC(O)(C(F)(F)c5ccccc5)C4)cc23)ccn1` (stereo not drawn) [compound 46, N-[3-(difluorophenylmethyl)-3-hydroxycyclohexyl]-3-(2-methyl-4-pyridinyl)-1H-indazole-5-carboxamide] yielded an IC50 of 630 nM.
